{
  "source": "ChEMBL document CHEMBL5344406",
  "about": "“1,2,3-Triazole-containing hybrids with potential antibacterial activity against ESKAPE pathogens” (2022)",
  "format_in_all_cases": "functional",
  "key": {"Pseudomonas aeruginosa [1]": {"tested_on": "Pseudomonas aeruginosa", "assay": "Antibacterial activity against Pseudomonas aeruginosa MTCC 1688 assessed as bacterial growth inhibition by broth microdilution method"}, "Staphylococcus aureus [2]": {"tested_on": "Staphylococcus aureus", "assay": "Antibacterial activity against Staphylococcus aureus MTCC 737 assessed as bacterial growth inhibition by serial dilution method"}, "Escherichia coli [3]": {"tested_on": "Escherichia coli", "assay": "Antibacterial activity against Escherichia coli assessed as bacterial growth inhibition by serial dilution method"}, "Klebsiella pneumoniae": {"tested_on": "Klebsiella pneumoniae", "assay": "Antibacterial activity against Klebsiella pneumoniae NCDC 138 assessed as bacterial growth inhibition incubated for 24 hrs by serial dilution method"}, "Bacillus subtilis [4]": {"tested_on": "Bacillus subtilis", "assay": "Antibacterial activity against Bacillus subtilis MTCC 441 assessed as bacterial growth inhibition incubated for 24 hrs by serial dilution method"}, "Streptococcus pyogenes [5]": {"tested_on": "Streptococcus pyogenes", "assay": "Antibacterial activity against Streptococcus pyogenes MTCC 442 assessed as bacterial growth inhibition by broth microdilution method"}, "Bacillus subtilis [6]": {"tested_on": "Bacillus subtilis", "assay": "Antibacterial activity against Bacillus subtilis ATCC 6633 assessed as bacterial growth inhibition incubated for 18 to 24 hrs by turbidimetry", "settings": "time 18-24 hrs"}, "Salmonella enterica": {"tested_on": "Salmonella enterica", "assay": "Antibacterial activity against Salmonella enterica assessed as bacterial growth inhibition incubated for 24 hrs by serial dilution method"}, "Staphylococcus aureus [7]": {"tested_on": "Staphylococcus aureus", "assay": "Antibacterial activity against Staphylococcus aureus ATCC 25923 assessed as bacterial growth inhibition by broth microdilution method"}, "Staphylococcus aureus [8]": {"tested_on": "Staphylococcus aureus", "assay": "Antibacterial activity against Staphylococcus aureus MTCC 96 assessed as bacterial growth inhibition by broth microdilution method"}, "Escherichia coli [9]": {"tested_on": "Escherichia coli", "assay": "Antibacterial activity against Escherichia coli MTCC 1687 assessed as bacterial growth inhibition by serial dilution method"}, "[10]": {"tested_on": "Staphylococcus epidermidis", "assay": "Antibacterial activity against Staphylococcus epidermidis assessed as bacterial growth inhibition by serial dilution method"}, "Bacillus subtilis [11]": {"tested_on": "Bacillus subtilis", "assay": "Antibacterial activity against Bacillus subtilis assessed as bacterial growth inhibition incubated for 24 hrs by serial dilution method"}, "Bacillus subtilis [12]": {"tested_on": "Bacillus subtilis", "assay": "Antibacterial activity against Bacillus subtilis assessed as bacterial growth inhibition by agar well diffusion method"}, "Escherichia coli [13]": {"tested_on": "Escherichia coli", "assay": "Antibacterial activity against Escherichia coli MTCC 443 assessed as bacterial growth inhibition by broth microdilution method"}, "Staphylococcus aureus [14]": {"tested_on": "Staphylococcus aureus", "assay": "Antibacterial activity against Staphylococcus aureus assessed as bacterial growth inhibition by agar well diffusion method"}, "Bacillus subtilis [15]": {"tested_on": "Bacillus subtilis", "assay": "Antibacterial activity against Bacillus subtilis assessed as bacterial growth inhibition by serial dilution method"}, "Escherichia coli [16]": {"tested_on": "Escherichia coli", "assay": "Antibacterial activity against Escherichia coli ATCC 25922 assessed as bacterial growth inhibition by broth microdilution method"}, "Pseudomonas aeruginosa [17]": {"tested_on": "Pseudomonas aeruginosa", "assay": "Antibacterial activity against Pseudomonas aeruginosa assessed as bacterial growth inhibition"}, "Staphylococcus aureus [18]": {"tested_on": "Staphylococcus aureus", "assay": "Antibacterial activity against Staphylococcus aureus ATCC 25923 assessed as bacterial growth inhibition incubated for 18 to 24 hrs by turbidimetry", "settings": "time 18-24 hrs"}, "Pseudomonas aeruginosa [19]": {"tested_on": "Pseudomonas aeruginosa", "assay": "Antibacterial activity against Pseudomonas aeruginosa ATCC 27853 assessed as bacterial growth inhibition incubated for 18 to 24 hrs by turbidimetry", "settings": "time 18-24 hrs"}, "Escherichia coli [20]": {"tested_on": "Escherichia coli", "assay": "Antibacterial activity against Escherichia coli ATCC 25922 assessed as bacterial growth inhibition incubated for 18 to 24 hrs by turbidimetry", "settings": "time 18-24 hrs"}, "Streptococcus pyogenes [21]": {"tested_on": "Streptococcus pyogenes", "assay": "Antibacterial activity against erythromycin-resistant Streptococcus pyogenes clinical isolate 2 assessed as bacterial growth inhibition incubated for 24 hrs by CLSI based broth microdilution method"}, "Streptococcus pneumoniae [22]": {"tested_on": "Streptococcus pneumoniae", "assay": "Antibacterial activity against erythromycin-resistant Streptococcus pneumoniae AB11 expressing ermB/mefA assessed as bacterial growth inhibition incubated for 24 hrs by CLSI based broth microdilution method"}, "Staphylococcus aureus [23]": {"tested_on": "Staphylococcus aureus", "assay": "Potency index, ratio of azithromycin MIC to test compound MIC for antibacterial activity against methicillin-resistant Staphylococcus aureus ATCC 43300 assessed as bacterial growth inhibition incubated for 24 hrs by CLSI based broth microdilution method"}, "Staphylococcus aureus [24]": {"tested_on": "Staphylococcus aureus", "assay": "Potency index, ratio of azithromycin MIC to test compound MIC for antibacterial activity against penicillin-resistant Staphylococcus aureus ATCC 31007 assessed as bacterial growth inhibition incubated for 24 hrs by CLSI based broth microdilution method"}, "Staphylococcus aureus [25]": {"tested_on": "Staphylococcus aureus", "assay": "Antibacterial activity against Staphylococcus aureus clinical isolate assessed as bacterial growth inhibition by disk diffusion method"}, "Streptococcus pneumoniae [26]": {"tested_on": "Streptococcus pneumoniae", "assay": "Potency index, ratio of azithromycin MIC to test compound MIC for antibacterial activity against erythromycin-resistant Streptococcus pneumoniae AB11 expressing ermB/mefA assessed as bacterial growth inhibition incubated for 24 hrs by CLSI based broth microdilution method"}, "Streptococcus pneumoniae [27]": {"tested_on": "Streptococcus pneumoniae", "assay": "Antibacterial activity against erythromycin-resistant Streptococcus pneumoniae B1 expressing ermB assessed as bacterial growth inhibition incubated for 24 hrs by CLSI based broth microdilution method"}, "Staphylococcus aureus [28]": {"tested_on": "Staphylococcus aureus", "assay": "Antibacterial activity against methicillin-resistant Staphylococcus aureus ATCC 43300 assessed as bacterial growth inhibition incubated for 24 hrs by CLSI based broth microdilution method"}, "Streptococcus pneumoniae [29]": {"tested_on": "Streptococcus pneumoniae", "assay": "Potency index, ratio of azithromycin MIC to test compound MIC for antibacterial activity against erythromycin-resistant Streptococcus pneumoniae B1 expressing ermB assessed as bacterial growth inhibition incubated for 24 hrs by CLSI based broth microdilution method"}, "Staphylococcus aureus [30]": {"tested_on": "Staphylococcus aureus", "assay": "Antibacterial activity against penicillin-resistant Staphylococcus aureus ATCC 31007 assessed as bacterial growth inhibition incubated for 24 hrs by CLSI based broth microdilution method"}, "Escherichia coli [31]": {"tested_on": "Escherichia coli", "assay": "Antibacterial activity against Escherichia coli clinical isolate assessed as bacterial growth inhibition by disk diffusion method"}, "Streptococcus pyogenes [32]": {"tested_on": "Streptococcus pyogenes", "assay": "Potency index, ratio of azithromycin MIC to test compound MIC for antibacterial activity against erythromycin-resistant Streptococcus pyogenes clinical isolate 2 assessed as bacterial growth inhibition incubated for 24 hrs by CLSI based broth microdilution method"}, "Staphylococcus aureus [33]": {"tested_on": "Staphylococcus aureus", "assay": "Potency index, ratio of Norfloxacin MIC to test compound MIC for antibacterial activity against Staphylococcus aureus assessed as bacterial growth inhibition by broth dilution method"}, "Staphylococcus aureus [34]": {"tested_on": "Staphylococcus aureus", "assay": "Antibacterial activity against multidrug-resistant Staphylococcus aureus clinical isolate assessed as bacterial growth inhibition by broth dilution method"}, "Staphylococcus aureus [35]": {"tested_on": "Staphylococcus aureus", "assay": "Antibacterial activity against Staphylococcus aureus assessed as bacterial growth inhibition by broth dilution method"}},
  "data": [
    {"smiles": "O=C(O)c1cn(C2CC2)c2cc(N3CCNCC3)c(F)cc2c1=O", "note": "[CIPROFLOXACIN]", "values": [
      {"measurement": "MIC", "setting": "Pseudomonas aeruginosa [1]", "result": 24.9, "unit": "µg/mL"},
      {"measurement": "MIC", "setting": "Staphylococcus aureus [2]", "result": 12.5, "unit": "µg/mL"},
      {"measurement": "MIC", "setting": "Escherichia coli [3]", "result": 25, "unit": "µg/mL"},
      {"measurement": "MIC", "setting": "Klebsiella pneumoniae", "result": 6.25, "unit": "µg/mL"},
      {"measurement": "MIC", "setting": "Bacillus subtilis [4]", "result": 6.25, "unit": "µg/mL"},
      {"measurement": "MIC", "setting": "Streptococcus pyogenes [5]", "result": 24.9, "unit": "µg/mL"},
      {"measurement": "MIC", "setting": "Bacillus subtilis [6]", "result": 0.125, "unit": "µg/mL"},
      {"measurement": "MIC", "setting": "Salmonella enterica", "result": 6.25, "unit": "µg/mL"},
      {"measurement": "MIC", "setting": "Staphylococcus aureus [7]", "result": 12, "unit": "µg/mL"},
      {"measurement": "MIC", "setting": "Staphylococcus aureus [8]", "result": 24.9, "unit": "µg/mL"},
      {"measurement": "MIC", "setting": "Escherichia coli [9]", "result": 12.5, "unit": "µg/mL"},
      {"measurement": "MIC", "setting": "[10]", "result": 25, "unit": "µg/mL"},
      {"measurement": "MIC", "setting": "Bacillus subtilis [11]", "result": 6.25, "unit": "µg/mL"},
      {"measurement": "MIC", "setting": "Bacillus subtilis [12]", "result": 0.5, "unit": "µg/mL"},
      {"measurement": "MIC", "setting": "Escherichia coli [13]", "result": 24.9, "unit": "µg/mL"},
      {"measurement": "MIC", "setting": "Staphylococcus aureus [14]", "result": 0.5, "unit": "µg/mL"},
      {"measurement": "MIC", "setting": "Bacillus subtilis [15]", "result": 25, "unit": "µg/mL"},
      {"measurement": "MIC", "setting": "Escherichia coli [16]", "result": 11, "unit": "µg/mL"},
      {"measurement": "MIC", "setting": "Pseudomonas aeruginosa [17]", "result": 1.56, "unit": "µg/mL"}
    ]},
    {"smiles": "Nc1c(C(=O)N2CCN(c3cc4c(cc3F)c(=O)c(C(=O)O)cn4C3CC3)CC2)nnn1-c1ccccc1", "values": [
      {"measurement": "MIC", "setting": "Staphylococcus aureus [18]", "result": 15.6, "unit": "µg/mL"},
      {"measurement": "MIC", "setting": "Bacillus subtilis [6]", "result": 15.6, "unit": "µg/mL"},
      {"measurement": "MIC", "setting": "Pseudomonas aeruginosa [19]", "result": 15.6, "unit": "µg/mL"},
      {"measurement": "MIC", "setting": "Escherichia coli [20]", "result": 15.6, "unit": "µg/mL"}
    ]},
    {"smiles": "O=C(N[C@H](CO)[C@H](O)c1ccc([N+](=O)[O-])cc1)C(Cl)Cl", "note": "[CHLORAMPHENICOL]", "values": [
      {"measurement": "MIC", "setting": "Streptococcus pyogenes [21]", "result": "> 256", "unit": "µg/mL"},
      {"measurement": "MIC", "setting": "Streptococcus pneumoniae [22]", "result": "> 256", "unit": "µg/mL"},
      {"measurement": "Ratio", "setting": "Staphylococcus aureus [23]", "result": ">16"},
      {"measurement": "Ratio", "setting": "Staphylococcus aureus [24]", "result": ">16"},
      {"measurement": "MIC", "setting": "Staphylococcus aureus [25]", "result": 11.6, "unit": "µg/mL"},
      {"measurement": "Ratio", "setting": "Streptococcus pneumoniae [26]", "result": ">16"},
      {"measurement": "MIC", "setting": "Streptococcus pneumoniae [27]", "result": "> 256", "unit": "µg/mL"},
      {"measurement": "MIC", "setting": "Staphylococcus aureus [28]", "result": "> 256", "unit": "µg/mL"},
      {"measurement": "Ratio", "setting": "Streptococcus pneumoniae [29]", "result": ">16"},
      {"measurement": "MIC", "setting": "Staphylococcus aureus [30]", "result": "> 256", "unit": "µg/mL"},
      {"measurement": "MIC", "setting": "Escherichia coli [31]", "result": 22.4, "unit": "µg/mL"},
      {"measurement": "Ratio", "setting": "Streptococcus pyogenes [32]", "result": ">16"}
    ]},
    {"smiles": "CC(=O)OC[C@@H]1O[C@H](n2cc(Cn3c(=O)c4ccccc4n(CCCCCCCCCC[P+](c4ccccc4)(c4ccccc4)c4ccccc4)c3=O)nn2)[C@@H](OC(C)=O)[C@H]1OC(C)=O.[Br-]", "values": [
      {"measurement": "Ratio", "setting": "Staphylococcus aureus [33]", "result": 7.5},
      {"measurement": "MIC", "setting": "Staphylococcus aureus [34]", "result": 1, "unit": "µg/mL"},
      {"measurement": "MIC", "setting": "Staphylococcus aureus [35]", "result": 1, "unit": "µg/mL"}
    ]}
  ]
}
